Assay results from US20160031927A1 (ASAVI, LLC, priority 2013, published 2016).
pEC50: −log10 of the molar value. Where two headings read alike, the source gives them in different places.

Legend:
[1] = system: subgenomic RNA-replicon HCV (genotype 1a); test: Antiviral activity in Huh7 cells with subgenomic HCV RNA-replicon, ELISA on viral cor-antigen (genotype 1a); format: cell-based
Experimental: (§1) Antiviral activity (EC50) of nucleoside inhibitors of HCV RNA-polymerase NS5B of the general formula 1, 2 and 3 (further—test compounds) was determined in the human hepatoma cell line Huh7, comprising subgenomic RNA-replicon HCV (genotype 1b, 1a and 2a). For quantitative estimation of viral replication was used a version of immune test ELISA on viral cor-antigen in 96-well plate. Cytotoxicity of the compounds was estimated in parallel regime. As a reference substance was used PSI-7977. Cells Huh7 were seeded in 96-well plate (7.5×10^3 cells to each well in 100 μl of culture medium). Solutions of the tested compounds in DMEM medium {DMEM 1×; Source: Cellgro; Catalogue: 10-013-CV} were prepared immediately before use. Eleven serial three fold dilutions with concentrations from 20 nM to […] were prepared. In 4 hours after seeding, serial dilutions of the compounds were added to the cells (100 μl to each well). Final concentration of tested compounds was varied from 10 nM to 0.1 pM, and DMSO—0.5%. If it was necessary, higher concentrations of the test compounds were investigated. Each dilution of the compound was tested on two identical wells. Then the cells were incubated for three days at 37° C./5% CO2 and fixed by addition of acetone/methanol (1:1) mixture in amount of 250 μl/well. In 1 min the cells were washed 3 times with PBS (Phosphate Buffered Saline) solution. Then the cells were blocked by addition of 10% fetal calf serum in PBS solution in amount of 150 μl/well for 1 h at room temperature. After that the cells were incubated with mouse monoclonal antibodies to cor-antigen HCV, clon C7-50 (Source: Affinity BioReagents; Catalogue: MA1-080) (100 μl/well, working dilution—1:500 in 10% fetal calf serum in PBS solution) for 2 h at 37° C. The cells were washed 6 times with PBS/0.05% Tween 20 solution, then, they were incubated for 1 h with goat anti-mouse immunoglobulin antibodies (conjugated with horseradish peroxidase, 100 μl/well, working dilution—1:2500 in 10% fetal calf serum in PBS solution). The cells were washed 6 times with PBS/0.05% Tween 20 solution, once with PBS solution, after that substrate (1 tablet of o-phenylenediamine (oPD)+12 ml citrate/phosphate buffer+5 μl 30% H2O2) in amount of 100 μl/well was added. The plates were kept for 30 min in the dark at room temperature. The reaction was arrested by the adding 2N H2SO4 in amount of 100 μl/well, and optical density (at wavelength 490 nm) was measured by means of multiscan plate reader Victor3 V 1420 (Perkin Elmer). IC50 values (concentration of test compound, lowering the level of virus RNA-replicon by 50%) for every tested compound were calculated using XLfit 4 program.

[2] = system: subgenomic RNA-replicon HCV (genotype 1b); test: Antiviral activity in Huh7 cells with subgenomic HCV RNA-replicon, ELISA on viral cor-antigen (genotype 1b); format: cell-based
Experimental: as §1

[3] = Cytotoxicity determination, ATPLite kit; format: cell-based, human; conditions: human; Huh7 cells, genotype 1b, 10% FBS
Experimental: (§2) Cytotoxicity of the test compounds (CC50) was investigated in experiments on the human hepatoma cell line Huh7. Metabolic activity of cells was determined using ATPLite kit (Perkin Elmer, Boston, USA) in accordance with manufacturer instructions. Cytotoxic action was estimated by seeding the cells into black microplate with transparent bottom (96 wells, 10^4 cells to each well). Three independent repeats were used for each test compound. The tested compounds were added in 18 h, after that the cells were incubated together with the compounds for 96 h. Each well was washed two times with phosphate buffered saline (0.2 ml/well) and then the cells were lysed by adding cell buffer (50 μl/well) (all mentioned reagents are included in ATPLite kit). The microplate was incubated for 5 min on a rotating platform at 600 r/min, after that 50 μl of substrate solution (a part of ATPLite kit) was added into each well. The microplate was incubated for additional 5 min on a rotating platform at 600 r/min, kept for 10 min in the dark; after that luminescence was measured using TopCount NXT instrument (Packard, Perkin Elmer). CC50 Value corresponding to concentration of tested compound at which 50% of cells were ruined was used as quantitative characteristic for cytotoxicity estimation. Calculation of CC50 value: for calculation of inhibition effectiveness (% Inh) the following equation was used: % Inh=[(L^pos−L^ex)/L^pos−L^neg)]*100%, where L^pos—positive control, luminescence in the wells with cells without compounds; L^neg—negative control, luminescence in the wells with medium without cells; L^ex—luminescence in wells with a compound of definite concentration. Then, CC50 values were calculated using XLfit 4 program.

[4] = system: subgenomic RNA-replicon HCV (genotype 2a); test: Antiviral activity in Huh7 cells with subgenomic HCV RNA-replicon, ELISA on viral cor-antigen (genotype 2a); format: cell-based
Experimental: as §1

[5] = system: viral hepatitis C; conditions: together with Daclatasvir; previously untreated patients; without interferon and Ribavirin; intermediate data; cited from earlier work
[6] = system: human hepatoma cell line Huh7; test: Cytotoxicity determination, ATPLite kit; format: cell-based; conditions: Huh7 cells, genotype 1b, 10% FBS
Experimental: as §2

[7] = Hepatitis C virus, Huh-7, Huh7 replicon, genotype 1a, 10% FBS, read-out: EC50, HCV genotype 1a
[8] = Hepatitis C virus, Huh-7, read-out: EC50, HCV genotype 1b
[9] = Hepatitis C virus, Huh-7, Huh7 replicon, genotype 2a, 10% FBS, read-out: EC50, HCV genotype 2a
[10] = Huh7 replicon, genotype 1a, 10% FBS, read-out: EC50, HCV genotype 1a
[11] = Huh7 replicon, genotype 1b, 10% FBS, read-out: EC50, HCV genotype 1b
[12] = Huh7 replicon, genotype 2a, 10% FBS, read-out: EC50, HCV genotype 2a

Compound | pEC50 [1, 7] | pEC50 [2, 8] | CC50 at 96 h [3] [nM] | pEC50 [4, 9] | pEC50 ([1]; Hepatitis C virus, Huh-7, read-out: EC50, HCV genotype 1a) | pEC50 ([4]; Hepatitis C virus, Huh-7, read-out: EC50, HCV genotype 2a) | positive result in patients [5] [%] | pEC50 [1, 10] | pEC50 [2, 11] | CC50 [6] [nM] | pEC50 [4, 12]
CC(C)OC(=O)[C@H](C)NP(=O)(OC[C@H]1O[C@@H](n2ccc(NC(=O)CN(C)C)nc2=O)C(F)(F)[C@@H]1O)Oc1ccccc1 (stereo partly drawn) [1.1.2(1), iso-propyl (S)-2-({(2R,3R,5R)-5-[4-(2-dimethylamino-acetylamino)-2-oxo-2H-pyrimidin-1-yl]-4,4-difluoro-3-hydroxy-tetrahydro-furan-2-ylmethoxy]-phenoxy-phosphorylamino}-propionate] | 6.98 | 7.46 | > 10000 | 6.94 | – | – | – | – | – | – | –
CC(C)OC(=O)[C@H](C)NP(=O)(OC[C@H]1O[C@@H](n2ccc(NC(=O)[C@H](NC(=O)OC(C)(C)C)C(C)C)nc2=O)C(F)(F)[C@@H]1O)Oc1ccccc1 (some centres unmarked) [1.1.2(2)] | 7.02 | 7.22 | > 10000 | 7.10 | – | – | – | – | – | – | –
CC(C)OC(=O)C(C)NP(=O)(OCC1OC(n2ccc(NC(=O)C(NC(=O)OC(C)(C)C)C(C)C)nc2=O)C(F)(F)C1O)Oc1ccccc1 (centres unmarked) [1.1.2(3)] | – | 7.22 | > 10000 | – | 6.74 | 7.16 | – | – | – | – | –
CC(C)OC(=O)[C@H](C)NP(=O)(OC[C@H]1OC(n2ccc(NC(=O)[C@@H]3CCCN3C)nc2=O)C(F)(F)[C@@H]1O)Oc1ccc(Cl)cc1 (some centres unmarked) [1.1.2(6)] | 6.91 | 7.84 | > 10000 | 7.10 | – | – | – | – | – | – | –
CC(C)OC(=O)[C@H](C)N[P@](=O)(OC[C@H]1O[C@@H](n2ccc(=O)[nH]c2=O)[C@](C)(F)[C@@H]1O)Oc1ccccc1 [PSI-7977, iso-propyl (S)-2-{(S)-[(2R,3R,4R,5R)-5-(2,4-dioxo-3,4-dihydro-2H-pyrimidin-1-yl)-4-fluoro-3-hydroxy-4-methyl-tetrahydro-furan-2-ylmethoxy]-phenoxy-phosphorylamino}-propanoate, reference compound] | – | – | – | – | – | – | 100 | 6.53 | 7.04 | > 10000 | 7.05
CC(C)OC(=O)[C@H](C)NP(=O)(OC[C@H]1OC(n2ccc(N)nc2=O)C(F)(F)[C@@H]1O)Oc1ccccc1 (stereo partly drawn) [compound 2, (S)-iso-propyl 2-((((2R,3R)-5-(4-aminooxopyrimidin-1(2H)-yl)-3-hydroxy-2-4,4-difluoro-tetrahydrofuran-2-yl)methoxy)(phenoxy)phosphorylamino)propanoate] | – | – | – | – | – | – | – | 6.94 | 7.86 | > 10000 | 7.24
CC(=O)O[C@@H]1[C@@H](COP(=O)(N[C@@H](C)C(=O)OC(C)C)Oc2ccccc2)OC(n2ccc(N)nc2=O)C1(F)F (stereo partly drawn) [compound 3, (S)-iso-propyl 2-((((2R,3R)-3-acetoxy-5-(4-amino-2-oxopyrimidin-1(2H)-yl)-4,4-difluoro-tetrahydrofuran-2-yl)methoxy)(phenoxy)phosphorylamino)propanoate] | 6.85 | 7.80 | > 10000 | 7.21 | – | – | – | – | – | – | –
